# Results published in US11952593B2, “Detection and treatment of daughter number variations in cancer cells” (PharmacoGenetics Limited, priority 2020, dated 2024).
# Assays:
# Type in all cases: cell-based, human
# HepG2 cells [1] = experiment: Daughter-cell subgroups P1 through P8 in mitoses with DNV, HepG2; settings: HepG2, 24 hours, wogonin 50 μM, 5-FU 20 μM
# Source text: (§1) “Daughter Number Variation” is a process that occurs during mitosis, where more than two daughter cells are produced per mitotic division. It is a two-stage process, wherein cell divisions of mono-nucleate, bi-nucleate, tri-nucleate and tetra-nucleate mother cells at Stage 1 produce subgroups of single mono-nucleate cells (herein referred to as P1), and subgroups containing one bi-nucleate cell and two mono-nucleate cells (herein referred to as P2). Stage 1 is followed by Stage 2, during which time some of the daughter cells from Stage 1 fuse to produce multi-nucleate cell subgroups, where the different subgroups differ with respect to the number of constituent cells and their nucleate status (herein referred to as P3 through P8). All the subgroups from a single DNV mitosis stay close to one another to form a distinct cluster when the cell culture is not overly dense with cells.
# (§2) P1 subgroup cells are daughter mono-nucleate cells resulting from mitoses with DNV that have not undergone any post-mitotic cell fusion. P2 subgroup daughter cells are clusters of one bi-nucleate cell and two mono-nucleate cells, which also have not undergone any post-mitotic cell fusion during DNV, whereas each of the multi-nucleated subgroups contains at least one cell that is generated from post-mitotic fusions between the Stage 1 cells. P3 through P8 are daughter cell subgroups, which result from cell fusions during DNV, and wherein each subgroup includes at least one multinucleate cell.
# (§3) By way of example and not of limitation, there is at least one multinucleate cell with two nuclei in P3 and P5, one multinucleate cell with three nuclei in P4 and P6, one multinucleate cell with four nuclei in P7, and one multinucleate cell with five nuclei in P8, sharing the same cytoplasm. More specifically, P3 cell subgroups are clusters of one multinucleate cell with two nuclei and one mononucleate cell, P4 cell subgroups are one multinucleate cell with three nuclei, P5 cell subgroups are clusters of either two multinucleate cells with two nuclei or one multinucleate cell with two nuclei and one binucleate cell, P6 cell subgroups are clusters of one multinucleate cell with three nuclei and one mononucleate cell, P7 cell subgroups are one multinucleate cell with four nuclei, and P8 cell subgroups are one multinucleate cell with five nuclei. P1 through P8 cell subgroups are depicted in detail in FIG. 2.
# (§4) The counts of P1 and P2 subgroups of cancer cells are then used to obtain their proportions based on the total number of cell subgroups P1 through P8 that resulted from mitotic DNVs during the predetermined period of time. The proportions are typically expressed as percentages. The proportion of P1 subgroup of cells is calculated as (number of P1 subgroups)+(total number of daughter cell subgroups)×100%, and the proportion of (P1 and P2) subgroup is calculated as (number of P1 subgroups+number of P2 subgroups)+(total number of daughter cell subgroups)×100%. This can also be expressed as (number of P1 subgroups)+(total number of P1 through P8 subgroups)×100%, or (number of P1 subgroups+number of P2 subgroups)+(total number of P1 through P8 subgroups)×100%, respectively.
# (§5) To investigate DNVs, the human HepG2 hepatocellular carcinoma, HeLa cervical adenocarcinoma, and A549 lung adenocarcinoma cell lines, as well as the non-cancerous RPE1 line of hTRET-immortalized retina epithelial cells, were obtained from the American Type Culture Collection (ATCC, Manassas, Va., USA) and cultivated in Dulbecco's Modified Eagle Medium (DMEM) supplemented with 10% fetal bovine serum (Gemini Bio-Products, Sacramento. Calif.) under a humidified atmosphere of 5% C02 at 37° C. […]
# A549 cells [2] = experiment: Daughter-cell subgroups P1 through P8 in mitoses with DNV, A549; settings: A549, 24 hours, wogonin 50 μM, 5-FU 20 μM
# Source text: as §1, §2, §3, §4, §5
# HepG2 cells [3] = experiment: Cell cytotoxicity assay (crystal violet), HepG2; settings: HepG2, 24 hours, 50 μM wogonin, 20 μM 5-FU, absorbance 600 nm
# Procedure: (§6) Cell cytotoxicity assay was carried out on 96 well plate, where cells were treated with neutral, acidic, alkaline pH and anti-cancer drug wogonin or 5-FU. After 24 hours, crystal violet (8% in methanol), and dye absorbed by live cells was extracted with sodium citrate (0.1 M) in 50% ethanol. Absorbance was read at 600 nm.
# (§7) HepG2, HeLa and A549 cells were grown to a monolayer density of 1×10^3 per well in neutral growth medium overnight. There upon the cells were changed to various treatment media at neutral, acidic and alkaline pHs, neutral medium containing 50 μM wogonin and neutral medium containing 20 μM 5-FU, for 24 hours at 37° C. in humidified 5% CO2 atmosphere. Following the treatment, floating cells were removed, and the attached cells were stained with crystal violet (8% in methanol); the dye absorbed by the live cells was extracted with sodium citrate (0.1 M) in 50% ethanol [1 25], and quantitated by absorbance at 600 nm.
# HeLa cells = experiment: Cell cytotoxicity assay (crystal violet), HeLa; settings: 24 hours, 50 μM wogonin, 20 μM 5-FU, absorbance 600 nm
# Procedure: as §6, §7
# A549 cells [4] = experiment: Cell cytotoxicity assay (crystal violet), A549; settings: A549, 24 hours, 50 μM wogonin, 20 μM 5-FU, absorbance 600 nm
# Procedure: as §6, §7
Compound,"Mitoses with DNV, number (HepG2 cells [1])","P1 + P2 subgroups, number (HepG2 cells [1])","P1 subgroups, number (HepG2 cells [1])","P2 subgroups, % of all P1 through P8 subgroups (HepG2 cells [1])","P2 subgroups, number (HepG2 cells [1])","P3 subgroups, % of all P1 through P8 subgroups (HepG2 cells [1])","P3 subgroups, number (HepG2 cells [1])","P4 subgroups, number (HepG2 cells [1])","P5 subgroups, % of all P1 through P8 subgroups (HepG2 cells [1])","P5 subgroups, number (HepG2 cells [1])","P6 subgroups, % of all P1 through P8 subgroups (HepG2 cells [1])","P6 subgroups, number (HepG2 cells [1])","P7 subgroups, number (HepG2 cells [1])","P8 subgroups, number (HepG2 cells [1])","Mitoses with DNV, number (A549 cells [2])","P1 + P2 subgroups, number (A549 cells [2])","P1 subgroups, number (A549 cells [2])","P2 subgroups, number (A549 cells [2])","P3 subgroups, number (A549 cells [2])","P4 subgroups, number (A549 cells [2])",further results
"O=c1[nH]cc(F)c(=O)[nH]1 [5-FU, 5-flurouracil]",17,6,3,(17.6) %,3,(35.2) %,6,0,(11.7) %,2,(17.6) %,3,0,0,3,3,3,0,0,0,"P5 subgroups, number (A549 cells [2]): 0; P6 subgroups, number (A549 cells [2]): 0; P7 subgroups, number (A549 cells [2]): 0; P8 subgroups, number (A549 cells [2]): 0; Cell death as compared to neutral pH (HepG2 cells [3]): increased cell death; Cell death as compared to neutral pH (HeLa cells): increased cell death; Cell death as compared to neutral pH (A549 cells [4]): increased cell death"
"COc1c(O)cc(O)c2c(=O)cc(-c3ccccc3)oc12 [Wogonin, wogonin]",63,38,27,(17.4) %,11,(12.7) %,8,9,(4.7) %,3,(4.7) %,3,2,0,7,4,4,0,3,0,"P1 + P2 subgroups, % of all P1 through P8 subgroups (HepG2 cells [1]): (60.3) %; P1 subgroups, % of all P1 through P8 subgroups (HepG2 cells [1]): (42.8) %; P4 subgroups, % of all P1 through P8 subgroups (HepG2 cells [1]): (14.2) %; P7 subgroups, % of all P1 through P8 subgroups (HepG2 cells [1]): (3.1) %; P1 + P2 subgroups, % of all P1 through P8 subgroups (HepG2 cells [1]; listed as wogonin): 60.3%; P1 subgroups, % of all P1 through P8 subgroups (HepG2 cells [1]; listed as wogonin): 42.8%; P1 + P2 subgroups, % of all P1 through P8 subgroups (A549 cells [2]): (57.1) %; P1 subgroups, % of all P1 through P8 subgroups (A549 cells [2]): (57.1) %; P3 subgroups, % of all P1 through P8 subgroups (A549 cells [2]): (42.8) %; P5 subgroups, number (A549 cells [2]): 0; P6 subgroups, number (A549 cells [2]): 0; P7 subgroups, number (A549 cells [2]): 0; P8 subgroups, number (A549 cells [2]): 0; P1 + P2 subgroups, % of all P1 through P8 subgroups (A549 cells [2]; listed as wogonin): 57.1%; P1 subgroups, % of all P1 through P8 subgroups (A549 cells [2]; listed as wogonin): 57.1%; Cell death as compared to neutral pH (HepG2 cells [3]): increased cell death; Cell death as compared to neutral pH (HeLa cells): increased cell death; Cell death as compared to neutral pH (A549 cells [4]): increased cell death"
